Consider one compound from EPA's ToxValDB 9.5 (doi:10.2903/j.efsa.2011.2087).

≈ marks a conversion by molar mass, not a printed value. Bounds are passed on as bounds.

The subject of one data set is Daphnia magna. The following applies: chronic/long-term; duration: 21 days; reproduction.
Another data set deals with Cyprinodon variegatus. The following applies: acute; duration: 96 hours; mortality.
Another data set concerns Pimephales promelas. The following applies: chronic/long-term; duration: 272 days; growth.
Another data set deals with Oncorhynchus mykiss. The following applies: acute; duration: 96 hours; mortality.
In a further data set the test system is Tagia sp. The following applies: acute; duration: 14 days; mortality.
The subject of a further data set is Colinus virginianus. Particulars: reproduction developmental.
The test system of the next data set is Apis mellifera. Particulars: acute; duration: 96 hours; dermal; mortality.
Another data set has as its system Bibionidae. Particulars: chronic/long-term; duration: 28 days.
The test system of a further data set is Typhlodromus pyri. Kind of data set: LR50; higher = less toxic. Particulars: acute; duration: 7 days; mortality.

As to `C#CCOS(=O)OC1CCCCC1Oc1ccc(C(C)(C)C)cc1` (stereo not drawn) [Propargite], the NOEC is 0.009 mg/L in the data set on Daphnia magna; 0.0057 mg/L in the data set with Pimephales promelas; 13.5 mg/kg-day with Anas platyrhynchos (reproductive); 142 mg/kg-day in the data set with Colinus virginianus; 0.32 mg/L in the data set on Bibionidae. Further, the LC50 in the data set on Cyprinodon variegatus came to 0.055 µg/mL (≈ 0.157 µM); in the data set on Oncorhynchus mykiss, 0.043 µg/mL (≈ 0.123 µM); in the data set on Tagia sp., 378 mg/kg. Further, the LD50 was > 4640 mg/kg in the data set with Anas platyrhynchos (acute, oral, unspecified, mortality); 2640 mg/kg-day in the data set with Rattus norvegicus (acute, oral, mortality); 47.9 µg/piece in the data set with Apis mellifera. In the data set with Rattus norvegicus (chronic), this compound returned an NOEL of 6.3 mg/kg-day. In the data set with Typhlodromus pyri, the LR50 stood at 4.5 g/ha.
